Key:
RARα = target: T1, RARα (Homo sapiens, UniProt P10276); assay: co-transfection assay, antagonist activity on RARα; format: cell-based; set-up: expressed in transfected cells; host or cells: CV-1 cells (African green monkey kidney); conditions: CV-1 cells, in presence of known RAR agonist TTNPB; for IC50: read-out: IC50 antagonist potency, RARα
T1 sequence (P10276 1-462): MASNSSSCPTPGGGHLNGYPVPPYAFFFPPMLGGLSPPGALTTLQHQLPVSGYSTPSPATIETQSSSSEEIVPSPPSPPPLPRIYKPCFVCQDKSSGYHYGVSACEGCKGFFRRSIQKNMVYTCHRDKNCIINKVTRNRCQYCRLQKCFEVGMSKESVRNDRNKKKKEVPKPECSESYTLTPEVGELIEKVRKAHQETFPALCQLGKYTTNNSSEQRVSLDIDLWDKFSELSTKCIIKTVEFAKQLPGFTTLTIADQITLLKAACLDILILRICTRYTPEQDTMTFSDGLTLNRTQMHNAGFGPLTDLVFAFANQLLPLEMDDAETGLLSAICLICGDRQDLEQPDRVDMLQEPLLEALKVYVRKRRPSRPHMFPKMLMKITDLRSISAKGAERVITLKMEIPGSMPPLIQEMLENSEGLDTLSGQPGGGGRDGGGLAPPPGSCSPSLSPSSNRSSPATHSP
Description: (§1) This assay is described in further detail in U.S. Pat. Nos. 4,981,784 and 5,071,773, the disclosures of which are incorporated herein by reference.
(§2) In the co-transfection assay, a cloned cDNA for an IR (e.g., human RARα:, RARβ, RXRγ) under the control of a constitutive promoter (e.g., the SV 40 promoter) is introduced by transfection (a procedure to induce cells to take up foreign genes) into a background cell substantially devoid of endogenous IRs. This introduced gene directs the recipient cells to make the IR protein of interest. A second gene is also introduced (co-transfected) into the same cells in conjunction with the IR gene. This second gene, comprising the cDNA for a reporter protein, such as firefly luciferase (LUC), is controlled by an appropriate hormone responsive promoter containing a hormone response element (HRE). This reporter plasmid functions as a reporter for the transcription-modulating activity of the target IR. Thus, the reporter acts as a surrogate for the products (mRNA then protein) normally expressed by a gene under control of the target receptor and its native hormone.
(§3) The co-transfection assay can detect small molecule agonists or antagonists of target IRs. Exposing the transfected cells to an agonist ligand compound increases reporter activity in the transfected cells. This activity can be conveniently measured, e.g., by increasing luciferase production, which reflects compound-dependent, IR-mediated increases in reporter transcription. To detect antagonists, the co-transfection assay is carried out in the presence of a constant concentration of an agonist to the target IR (e.g., all-trans retinoic acid for RARα) known to induce a defined reporter signal. Increasing concentrations of a suspected antagonist will decrease the reporter signal (e.g., luciferase production). The co-transfection assay is therefore useful to detect both agonists and antagonists of specific IRs. Furthermore, it determines not only whether a compound interacts with a particular IR, but whether this interaction mimics (agonizes) or blocks (antagonizes) the effects of the native regulatory molecules on target gene expression, as well as the specificity and strength of this interaction.
CV-1 cells (African green monkey kidney fibroblasts) were cultured in the presence of Dulbecco's Modified Eagle Medium (DMEM) supplemented with 10% charcoal resin-stripped fetal bovine serum then transferred to 96-well microtiter plates one day prior to transfection.
To determine RAR and/or RXR agonist activity of the compounds of the present invention, the CV-1 cells were transiently transfected by calcium phosphate coprecipitation according to the procedure of Berger et al., 41 J. Steroid Biochem. Mol. Biol., 733 (1992) with the following receptor expressing plasmids: pRShRARα: Giguere et al., 330 Nature, 624 (1987); pRShRARβ and pRShRARγ, Ishikawa et al., 4 Mol. Endocrin., 837 (1990); pRShRXRα, Mangelsdorf et al., 345 Nature, 224 (1990); and pRSmRXRβ and pRSmRXRγ, Mangelsdorf et al., 6 Genes & Devel., 329 (1992), the disclosures of which are herein incorporated by reference. Each of these receptor expressing plasmids was co-transfected at a concentration of 5 ng/well, along with a basal reporter plasmid at 100 ng/well, the internal control plasmid pRS-β-Gal at 50 ng/well and filler DNA, pGEM at 45 ng/well.
The basal reporter plasmid D-MTV-LUC (Hollenberg and Evans, 55 Cell, 899 (1988), the disclosure of which is herein incorporated by reference) containing two copies of the TRE-palindromic response element described in Umesono et al., 336 Nature, 262 (1988), the disclosure of which is herein incorporated by reference, was used in transfections for the RARs, and the reporter plasmid CRBPIIFKLUC, which contains an RXRE (retinoid X receptor response element, as described in Mangelsdorf et al., 66 Cell, 555 (1991), the disclosure of which is herein incorporated by reference), was used in transfections for the RXRs.

RARβ = target: T2, RARβ (Homo sapiens, UniProt P10826); assay: co-transfection assay, agonist activity on RARβ; format: cell-based; set-up: expressed in transfected cells; host or cells: CV-1 cells (African green monkey kidney); conditions: CV-1 cells; read-out: EC50 agonist potency, RARβ
T2 sequence (P10826 1-448 isoform P10826-2): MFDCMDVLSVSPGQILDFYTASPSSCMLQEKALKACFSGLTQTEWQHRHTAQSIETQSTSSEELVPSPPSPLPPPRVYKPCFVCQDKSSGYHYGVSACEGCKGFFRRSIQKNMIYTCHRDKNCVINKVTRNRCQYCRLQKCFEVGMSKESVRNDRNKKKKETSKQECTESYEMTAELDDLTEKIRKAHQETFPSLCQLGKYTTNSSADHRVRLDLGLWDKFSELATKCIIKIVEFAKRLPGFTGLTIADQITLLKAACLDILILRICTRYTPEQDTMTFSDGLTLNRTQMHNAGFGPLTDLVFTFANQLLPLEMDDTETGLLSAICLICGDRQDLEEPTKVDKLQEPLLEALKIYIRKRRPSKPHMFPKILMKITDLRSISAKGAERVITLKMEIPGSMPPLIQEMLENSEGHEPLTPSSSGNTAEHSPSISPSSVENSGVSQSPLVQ
Description: as §1, §2, §3
CV-1 cells (African green monkey kidney fibroblasts) were cultured in the presence of Dulbecco's Modified Eagle Medium (DMEM) supplemented with 10% charcoal resin-stripped fetal bovine serum then transferred to 96-well microtiter plates one day prior to transfection. […]

Row | Compound | efficacy of antagonist, % of maximal inhibition, RARα (in parentheses after IC50) (RARα) [%] | IC50 (RARα) [nM] | EC50 (RARβ) [nM]
1 | CCCCOc1c(C(C)(C)C)cc(/C(C)=C/C=C/C(C)=C/C(=O)O)cc1C(C)(C)C [Compound 7, 2E, 4E, 6E-[7-(3,5-Di-t-butyl-4-n-butoxyphenyl)-3-methyl]-octa-2,4,6-trienoic acid] | 90 | 4 | > 10000
2 | CCCOc1c(C(C)(C)C)cc(/C(C)=C/C=C/C(C)=C/C(=O)O)cc1C(C)(C)C [Compound 8, 2E, 4E, 6E-[7-(3,5-Di-t-butyl-4-n-propoxyphenyl)-3-methyl]-octa-2,4,6-trienoic acid] | 90 | 2 | > 10000
3 | CCCCCOc1c(C(C)(C)C)cc(/C(C)=C/C=C/C(C)=C/C(=O)O)cc1C(C)(C)C [Compound 9, 2E, 4E, 6E-[7-(3,5-Di-t-butyl-4-n-pentoxyphenyl)-3-methyl]-octa-2,4,6-trienoic acid] | 91 | 5 | > 10000
4 | C=C(c1ccccc1)c1cc(/C(C)=C/C=C/C(C)=C/C(=O)O)cc(C(C)(C)C)c1 [Compound 17, (2E,4E,6E)-7-[3-t-butyl-5-(1-phenyl-vinyl)-phenyl]-3-methyl-octa-2,4,6-trienoic acid] | 98 | 2 | > 10000
